Consider 41 compounds from ChEMBL document CHEMBL1201862, “PubChem BioAssay data set” (2004).

The source made the active and inactive calls.

One data set has as its target Cytochrome P450 2C9 (Homo sapiens, UniProt P11712).
The target in data set [1] is DNA dC->dU-editing enzyme APOBEC-3A (Homo sapiens, UniProt P31941). Briefly: Dose Response confirmation of small molecule APOBEC3A DNA Deaminase Inhibitors via a fluorescence-based single-stranded DNA deaminase assay. [Related pubchem assays (depositor defined):AID493011, AID493024]. The data set is classed as functional.
Data set [2] concerns the target DNA dC->dU-editing enzyme APOBEC-3G (Homo sapiens, UniProt Q9HC16). The data set is classed as functional.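 Also: Dose-response counterscreen measuring inhibition of APOBEC3G DNA deaminase activity, run while confirming APOBEC3A inhibitors.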
Another data set concerns the target Cytochrome P450 3A4 (Homo sapiens, UniProt P08684).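 Also: CYP3A4 tested as one member of a cytochrome P450 panel screen.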
Data set [3] has as its target T1, Heat shock factor protein 1 (Mus musculus, UniProt P38532).
T1 sequence (P38532 whole entry): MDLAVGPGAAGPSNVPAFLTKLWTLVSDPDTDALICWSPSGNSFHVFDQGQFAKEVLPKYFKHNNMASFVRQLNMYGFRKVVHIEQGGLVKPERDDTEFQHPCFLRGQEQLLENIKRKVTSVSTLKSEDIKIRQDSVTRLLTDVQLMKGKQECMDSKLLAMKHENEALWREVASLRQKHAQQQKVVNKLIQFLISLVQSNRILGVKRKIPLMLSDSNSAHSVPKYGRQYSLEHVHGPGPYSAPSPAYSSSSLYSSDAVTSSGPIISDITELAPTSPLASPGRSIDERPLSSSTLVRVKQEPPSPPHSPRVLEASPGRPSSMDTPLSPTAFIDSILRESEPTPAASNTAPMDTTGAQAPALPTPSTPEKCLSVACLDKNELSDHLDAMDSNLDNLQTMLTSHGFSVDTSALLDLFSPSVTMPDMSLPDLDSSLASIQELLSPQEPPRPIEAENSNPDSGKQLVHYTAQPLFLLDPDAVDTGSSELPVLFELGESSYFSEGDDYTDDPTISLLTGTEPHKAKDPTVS
As to the kind of experiment: HSF1 potentiators in luciferase reporter cells, confirmation, cell-based, NIH3T3, luminescence, dose retest (AID 435004).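 Also: stress induced by proteasome inhibitor MG132 added 30 min after compound; luciferase reporter driven by HSF1 response element in NIH3T3 cells; actives raise luminescence as potentiators of the MG132 stress response.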 The format is functional.

In another data set the target is T2, Cytochrome P450 1A2 (Homo sapiens, UniProt P05177).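 Also: PubChem cytochrome P450 panel assay, CYP1A2 panel member.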
T2 sequence (P05177 whole entry): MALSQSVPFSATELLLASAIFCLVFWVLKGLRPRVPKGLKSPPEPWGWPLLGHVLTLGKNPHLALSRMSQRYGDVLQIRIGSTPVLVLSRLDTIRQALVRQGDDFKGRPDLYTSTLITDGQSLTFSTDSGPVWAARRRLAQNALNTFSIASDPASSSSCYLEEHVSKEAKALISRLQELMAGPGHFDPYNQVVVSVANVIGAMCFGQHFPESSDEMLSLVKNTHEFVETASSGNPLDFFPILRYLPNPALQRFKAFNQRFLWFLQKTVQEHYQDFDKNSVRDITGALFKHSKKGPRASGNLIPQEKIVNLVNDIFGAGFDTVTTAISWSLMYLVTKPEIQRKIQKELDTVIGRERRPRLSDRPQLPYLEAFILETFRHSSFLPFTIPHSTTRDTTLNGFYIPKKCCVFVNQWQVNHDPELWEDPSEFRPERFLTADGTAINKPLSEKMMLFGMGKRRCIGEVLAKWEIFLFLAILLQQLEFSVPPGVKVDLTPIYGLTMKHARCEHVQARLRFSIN

A further data set addresses Cytochrome P450 2C19 (Homo sapiens, UniProt P33261). Briefly: Cytochrome panel assay with activity outcomes. Panel member name: p450-cyp2c19 Compounds with AC50 equal or less than 10 uM are considered active. The data set is classed as functional.
For the next data set, the system named is Vero. As to the kind of experiment: cells. The settings on record: Chlorocebus sabaeus. The data set is classed as functional.
The test system of a further data set is H9c2. Briefly: cells. The data set is classed as functional, cell-based. The conditions noted are these: Rattus norvegicus, H9c2, Myocardium.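 Also: confirmatory concentration-response retest of ultra-high-throughput screening hits for modulation of myocardial damage; cell death induced by hydrogen peroxide oxidative stress; compound pretreatment for 60 min then peroxide exposure for 2 h; potency is for protecting the cells against peroxide damage rather than for killing them.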
The nature of data set [4]: intracellular Trypanosoma cruzi inhibitors in host cells – cell-based, plate reader, cherry-pick samples, set 3, dose response (AID 651818).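 Also: compounds incubated with infected cells for about four days.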 The data set is classed as functional.
The subject of the next data set is P388/ADR. Briefly: cells. The conditions noted are these: Mus musculus. The format is functional.
For a further data set, the system named is SN12K1. Briefly: cells. The settings on record: Homo sapiens. The format is functional.
The next data set has as its system P388. Briefly: cells. The data set is classed as functional. The settings on record: Mus musculus.

The AC50 is the concentration at which the activity in the assay is half-maximal. The IC50 is the midpoint of a concentration-inhibition curve. The term EC50 denotes the concentration that produces a half-maximal response. The CC50 is the concentration that lowers cell viability or growth by half. The GI50 is the concentration giving 50% growth inhibition.

Cytochrome P450 2C9, sequence (P11712 whole entry): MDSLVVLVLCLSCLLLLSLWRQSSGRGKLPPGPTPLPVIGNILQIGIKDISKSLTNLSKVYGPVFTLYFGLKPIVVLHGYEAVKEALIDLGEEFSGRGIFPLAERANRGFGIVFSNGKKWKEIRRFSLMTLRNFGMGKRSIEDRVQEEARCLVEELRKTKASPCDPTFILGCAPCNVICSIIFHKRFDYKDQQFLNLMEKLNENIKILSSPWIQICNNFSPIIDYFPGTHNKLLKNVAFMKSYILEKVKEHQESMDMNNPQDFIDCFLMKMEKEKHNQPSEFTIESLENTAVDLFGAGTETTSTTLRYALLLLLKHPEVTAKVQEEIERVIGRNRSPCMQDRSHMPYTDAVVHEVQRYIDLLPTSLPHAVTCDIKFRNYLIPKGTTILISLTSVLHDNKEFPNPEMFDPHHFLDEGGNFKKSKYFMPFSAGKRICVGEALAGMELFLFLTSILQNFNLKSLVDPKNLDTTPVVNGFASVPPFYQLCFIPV
DNA dC->dU-editing enzyme APOBEC-3A, sequence (P31941 whole entry): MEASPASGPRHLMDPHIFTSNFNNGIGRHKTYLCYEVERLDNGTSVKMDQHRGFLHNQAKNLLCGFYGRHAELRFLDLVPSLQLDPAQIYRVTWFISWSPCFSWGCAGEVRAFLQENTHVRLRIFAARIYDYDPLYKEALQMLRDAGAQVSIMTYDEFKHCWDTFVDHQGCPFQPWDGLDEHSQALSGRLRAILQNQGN
Cytochrome P450 2C19, sequence (P33261 whole entry): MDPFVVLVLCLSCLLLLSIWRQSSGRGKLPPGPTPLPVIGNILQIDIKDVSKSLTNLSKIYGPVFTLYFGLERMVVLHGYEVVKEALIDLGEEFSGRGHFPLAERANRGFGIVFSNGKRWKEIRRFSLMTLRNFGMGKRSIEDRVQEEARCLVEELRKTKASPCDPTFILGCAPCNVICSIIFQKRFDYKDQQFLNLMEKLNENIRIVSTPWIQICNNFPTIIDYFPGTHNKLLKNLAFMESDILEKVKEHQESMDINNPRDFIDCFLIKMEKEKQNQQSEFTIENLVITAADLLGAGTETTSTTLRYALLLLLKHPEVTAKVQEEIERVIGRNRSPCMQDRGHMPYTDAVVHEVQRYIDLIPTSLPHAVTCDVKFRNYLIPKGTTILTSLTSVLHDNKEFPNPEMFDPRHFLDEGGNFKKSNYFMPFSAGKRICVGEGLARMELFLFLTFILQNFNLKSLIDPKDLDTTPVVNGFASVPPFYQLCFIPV
DNA dC->dU-editing enzyme APOBEC-3G, sequence (Q9HC16 whole entry): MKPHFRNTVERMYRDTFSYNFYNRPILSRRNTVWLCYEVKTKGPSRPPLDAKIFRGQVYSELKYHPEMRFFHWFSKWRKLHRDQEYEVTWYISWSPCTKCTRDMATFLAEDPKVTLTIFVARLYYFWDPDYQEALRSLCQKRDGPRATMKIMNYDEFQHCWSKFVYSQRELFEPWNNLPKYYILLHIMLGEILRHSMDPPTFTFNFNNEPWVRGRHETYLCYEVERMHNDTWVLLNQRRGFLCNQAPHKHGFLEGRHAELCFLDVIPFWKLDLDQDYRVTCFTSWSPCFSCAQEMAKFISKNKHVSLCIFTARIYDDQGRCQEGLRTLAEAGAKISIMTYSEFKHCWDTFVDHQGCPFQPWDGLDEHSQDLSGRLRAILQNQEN
Cytochrome P450 3A4, sequence (P08684 whole entry): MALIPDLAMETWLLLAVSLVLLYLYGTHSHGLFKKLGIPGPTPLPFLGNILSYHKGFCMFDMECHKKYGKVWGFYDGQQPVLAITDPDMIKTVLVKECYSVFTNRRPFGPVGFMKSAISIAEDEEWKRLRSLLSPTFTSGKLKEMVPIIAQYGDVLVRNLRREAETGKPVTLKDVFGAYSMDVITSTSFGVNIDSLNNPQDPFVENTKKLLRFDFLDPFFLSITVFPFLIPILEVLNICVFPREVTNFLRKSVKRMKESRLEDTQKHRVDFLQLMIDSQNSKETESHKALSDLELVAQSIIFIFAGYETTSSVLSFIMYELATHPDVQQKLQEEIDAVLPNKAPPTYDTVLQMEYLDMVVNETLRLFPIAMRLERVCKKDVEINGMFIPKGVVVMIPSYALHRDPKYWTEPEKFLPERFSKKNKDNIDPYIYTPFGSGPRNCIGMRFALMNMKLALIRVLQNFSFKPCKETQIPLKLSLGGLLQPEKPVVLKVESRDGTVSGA

Regarding `O=C(O)CCCC[C@H]1CCSS1`, the AC50 entry at Cytochrome P450 2C9 is listed as “inconclusive”. On to `COc1cc(Nc2cccc[n+]2C)cc(OC)c1OC`, for which the results for the IC50 in [1] and in data set [2] were 3.48 µM (active) and 2.85 µM (active), respectively.

`CCN(CC)CCN1C(=O)C(O)=C(C(=O)c2ccc(OC)cc2)C1c1cccs1` (centres undefined): the AC50 is 17.8 µM (inconclusive) on Cytochrome P450 3A4 and “inconclusive” on Cytochrome P450 2C9. As to `Cc1cccc(C)c1OCC(=O)NCc1nnc(SCC(=O)NC2CCCCC2C)n1C` (centres undefined), the results for the IC50 in data set [1] and in data set [2] were 2.78 µM (active) and 6.2 µM (active), respectively. Besides, in data set [3], the EC50 was > 260 µM (inactive). For the compound `COc1ccc(Br)cc1/C=C/C(=O)Nc1c(C)cccc1C`, the figures for the AC50 at Cytochrome P450 1A2 and at Cytochrome P450 2C9 were 22.4 µM (inconclusive) and “inconclusive”, respectively.

Regarding `CNc1ccnc(-c2c(C)noc2C)n1`, the figures for the AC50 entry at Cytochrome P450 2C19, on Cytochrome P450 3A4 and on Cytochrome P450 2C9 were “inconclusive”, 39.8 µM (inconclusive) and “inconclusive”, respectively.

Regarding `COc1cccc(C2=CC(c3cc(OC)ccc3OC)n3nnnc3N2)c1` (centres undefined), the CC50 in the data set on Vero was 14.4 µM (active).

Take `CCOC(=O)c1c(NC(=O)CSc2c[nH]c3ccccc23)sc2c1CCCC2`: the CC50 in the data set on Vero was > 25 µM (active). `N#C/C(=C\c1c[nH]nc1-c1ccccc1)C(=O)NC1CCCCCC1`: the AC50 entry on Cytochrome P450 2C9 was “inconclusive”.

As for `COCCN1Cc2cccc(C(=O)Nc3cccc(-c4nc5ccccc5[nH]4)c3)c2C1=O`, the IC50 in the data set with H9c2 was > 79 µM (inactive). Besides, the CC50 in the data set with Vero was > 25 µM (active). Regarding `CCN1C(NCCCCO)=N[C@@H](c2cccc(C(F)(F)F)c2)C(C(=O)OC)=C1C`, the IC50 in [1] is 2.59 µM (active); in data set [2], 2.44 µM (active). With `CC[C@]12C=CCN3CCC4(c5cc(Br)c(OC)cc5N(C)C4[C@@](O)(C(=O)OC)[C@@H]1OC(C)=O)C32` (some centres undefined), the IC50 in data set [1] is 2.14 µM (active); in data set [2] it was 1.81 µM (active). `CCN(CC)S(=O)(=O)c1cc(C(=O)OC)ccc1Cl`: the AC50 result at Cytochrome P450 2C9 was “inconclusive”. For `O=C1OCc2cccc3cccc1c23`, the AC50 is 39.8 µM (inconclusive) on Cytochrome P450 2C19 (read-out: AC50) and “inconclusive” at Cytochrome P450 2C9.

With `C=CCN1C(=O)/C(=C/c2ccc3c(c2)CCCN3CCC)C(=O)NC1=S`, the CC50 with Vero was 18.3 µM (active). For the compound `CC[N+](C)(CC)CC(=O)OCC1C(C)C=C(C)CC1C` (centres undefined), the values for the IC50 in data set [1] and in data set [2] were 1.31 µM (active) and 2.04 µM (active), respectively. On to `CC(C)(C)C(=O)NNC(=O)CCCOc1ccc(Cl)cc1Cl`, for which the AC50 on Cytochrome P450 1A2 is 25.1 µM (inconclusive); at Cytochrome P450 2C9, “inconclusive”. For `Cc1c(C(=O)Nc2ccc(OCc3ccccc3)cc2)cccc1[N+](=O)[O-]`, on Cytochrome P450 2C9, the AC50 result is reported as “inconclusive”. Regarding `O=C(NCCOc1ccccc1)c1nc[nH]n1`, the IC50 is 6.18 µM (active) in data set [1] and 18.7 µM (active) in [2]. Consider `Cc1[nH]c(=O)c(C(=O)/C=C/c2ccccc2F)c2c1CCCC2`, for which, at Cytochrome P450 2C9, the AC50 entry is “inconclusive”. With `COC(=O)c1cccc(NC(=O)/C=C/c2cccc([N+](=O)[O-])c2)c1`, the AC50 on Cytochrome P450 2C19 (read-out: AC50) is 5.01 µM (inconclusive); at Cytochrome P450 1A2 it was 2.24 µM (inconclusive); at Cytochrome P450 2C9, “inconclusive”.

Turning to `CN1CCC(N(C)S(=O)(=O)c2ccc(NC(=O)c3ccc(S(=O)(=O)N(C)C)cc3)cc2)CC1`, the concentration for half-maximal inhibition (IC50) was 13.9 µM (active) in data set [1] and 16 µM (active) in [2]. Turning to `CCN(CC)CCNC(=O)c1ccc(NC(=O)C2CC(=O)N(c3ccc4c(c3)OCCO4)C2)cc1` (centres undefined), the IC50 in [1] is 7.53 µM (active); in data set [2], 8.16 µM (active). `C=CC[C@@H](CC(=O)N(CCO)Cc1ccccc1)C(=O)N[C@@H](COC(=O)[C@@H](CC=C)Cc1ccc(F)cc1)Cc1c[nH]c2ccccc12`: in the data set with Vero, the CC50 is 18 µM (active). On to `C[C@H](CO)N1C[C@H](C)[C@H](CN(C)Cc2ccc(Cl)c(Cl)c2)Oc2c(NS(C)(=O)=O)cccc2C1=O`, for which the AC50 in [4] is 17.3 µM (active). On to `C[C@@H]1CN([C@H](C)CO)C(=O)Cc2cc(NC(=O)Nc3ccc(C(F)(F)F)cc3)ccc2O[C@@H]1CN(C)Cc1ccc(Oc2ccccc2)cc1`, for which, in [4], the AC50 is 3.3 µM (active). On to `C[C@@H]1CN([C@@H](C)CO)C(=O)Cc2cc(NC(=O)Nc3ccc(C(F)(F)F)cc3)ccc2O[C@@H]1CN(C)C(=O)Nc1ccc(C(F)(F)F)cc1`, for which the AC50 in [4] is 3.66 µM (active). `COc1ccc(S(=O)(=O)Nc2ccc3c(c2)CC(=O)N([C@H](C)CO)C[C@@H](C)[C@@H](CN(C)Cc2ccc(Oc4ccccc4)cc2)O3)cc1`: the AC50 in [4] was 2.26 µM (active). As for `C[C@@H]1CN([C@H](C)CO)C(=O)Cc2cc(NS(=O)(=O)c3ccc(F)cc3)ccc2O[C@@H]1CN(C)S(=O)(=O)c1ccccc1`, the AC50 in data set [4] was 5.74 µM (active). The same measure, in the same setting: the same measure for `C[C@H]1CN([C@@H](C)CO)C(=O)c2cc(NC(=O)Nc3ccc(F)cc3)ccc2O[C@H]1CN(C)Cc1ccc(-c2ccccc2)cc1`: 3.74 µM (active); for `C[C@@H]1CN([C@H](C)CO)C(=O)c2cc(NS(=O)(=O)c3ccc(F)cc3)ccc2O[C@H]1CN(C)Cc1ccc(-c2ccccc2)cc1`: 5.77 µM (active); for `C[C@@H]1CN([C@@H](C)CO)C(=O)c2cc(NS(=O)(=O)c3ccc(F)cc3)ccc2O[C@H]1CN(C)Cc1ccc(C(=O)Nc2ccccc2N)cc1`: 3.6 µM (active). Turning to `C[C@H](CO)N1C[C@H](C)[C@H](CN(C)Cc2ccc(C(F)(F)F)cc2)Oc2ccc(NC(=O)Cc3cn(C)c4ccccc34)cc2C1=O`, the AC50 in [4] was 4.35 µM (active). On to `C[C@H]1CN([C@@H](C)CO)C(=O)c2cc(NC(=O)Cc3cn(C)c4ccccc34)ccc2O[C@H]1CN(C)Cc1ccc(Oc2ccccc2)cc1`, for which the AC50 in data set [4] is 6.34 µM (active).

With `C[C@H]1CN([C@@H](C)CO)C(=O)c2cc(NC(=O)Nc3ccc(C(F)(F)F)cc3)ccc2O[C@@H]1CN(C)Cc1ccc2c(c1)OCO2`, the AC50 in data set [4] is 4.02 µM (active).

For the compound `C[C@@H]1CN([C@H](C)CO)C(=O)Cc2cc(NC(=O)Nc3ccc4c(c3)OCO4)ccc2O[C@H]1CN(C)Cc1ccc(Oc2ccccc2)cc1`, the AC50 in data set [4] is 3.08 µM (active). In the case of `C[C@H]1CN([C@@H](C)CO)C(=O)c2cccc(N(C)C)c2O[C@H]1CN(C)Cc1ccc(C(=O)Nc2ccccc2N)cc1`, the concentration at half-maximal activity (AC50) in data set [4] is 4.84 µM (active). Take `C[C@H](CO)N1C[C@H](C)[C@H](CN(C)S(=O)(=O)c2ccc(Cl)cc2)Oc2c(NC(=O)Nc3ccc(C(F)(F)F)cc3)cccc2C1=O`: in data set [4], the AC50 was 4.44 µM (active). Take `CC(C)C(NC(=O)c1ccc2c(c1)OCO2)C(=O)N/N=C\c1ccco1` (centres undefined): the IC50 in [1] was > 100 µM (inactive); in [2], 15.9 µM (active).

Take `CC1=C2C(=CO[C@H](C)[C@H]2C)C(O)=C(C(=O)O)C1=O` [CITRININ]: the GI50 in the data set with P388/ADR is 11.5 µM (inactive); with SN12K1, 15.3 µM (inactive); in the data set on P388, 17 µM (inactive). For `C[C@]12C=CC(=O)C=C1CC[C@@H]1[C@@H]2CC[C@]2(C)OC(=O)CC[C@@H]12` [TESTOLACTONE], the GI50 is 161 µM (inactive) in the data set with P388/ADR, 458 µM (inactive) with SN12K1 and 162 µM (inactive) in the data set on P388.
